Measured values taken from patent US7572798B2, “Combi-molecules having signal transduction inhibitory properties and DNA damaging properties” (McGill University, priority 2001, dated 2009).

Experiments:
[1] = molecular target: EGFR (Homo sapiens, UniProt P00533); experiment: Reverse EGFR autophosphorylation (reversibility) assay in A431 cells; type: cell-based; conditions: A431, 30 μM
Experimental: To test this hypothesis, the reversibility assay (40, 41) was used, according to which the cells are treated with the drug for 90 min after which the culture medium is repeatedly removed and replaced 3 times, followed by the measurement of EGFR autophosphorylation.
A431 cells were grown to confluence in 6-well plates and then incubated in serum-free medium for 18 h (41). Duplicate sets of cells were then treated with 30 μM of each compound for 90 min. One set of cells was then stimulated with EGF (100 ng/ml) for 10 min and extracts were made as described under the Western blotting procedure above. The other set of cells was washed free of each compound with warmed serum-free media and incubated for 2 h. Thereafter, the cells were washed, incubated for another 2 h, washed again, and then incubated for a further 4 h. This set of cells was then stimulated with EGF and extracts were prepared as for the first set.

[2] = system: NIH3T3HER14 cells; experiment: Growth factor-stimulated proliferation in NIH3T3HER14 cells (SRB); type: cell-based, mouse
Experimental: To study the effect of our compounds on growth factors stimulated proliferation, cells were grown to 70% confluence in 48-well plates and washed twice with PBS, after which they were exposed to serum-free medium for 18 h. The cells were then exposed to each drug and growth factors (EGF, TGFα, PDGF or serum) for 72 h and cell growth measured using the sulforhodamine B (SRB) assay (33). Briefly, following drug treatment, cells were fixed using 50 μl of cold trichloroacetic acid (50%) for 60 min at 4° C., washed five times with tap water, and stained for 30 min at room temperature with SRB (0.4%) dissolved in acetic acid (0.5%). The plates were rinsed five times with 1% acetic acid and allowed to air dry. […] Each point represents the average of at least two independent experiments run in triplicate.

[3] = system: NIH3T3 and NIH3T3HER14 cells; experiment: Alkaline comet assay in isogenic pair NIH3T3 / NIH3T3HER14; type: cell-based, mouse; conditions: NIH3T3HER14 versus NIH3T3, 30 min
Experimental: The alkaline comet assay was performed as previously described (26). […] Cell suspensions were diluted to approximately 10^6 cells, and mixed with agarose (1%) in PBS at 37° C. in a 1:10 dilution. The gels were cast on Gelbond strips (Mandel Scientific, Guelph, Canada) using gel casting chambers, as previously described (31), and then immediately placed in a lysis buffer [2.5 M NaCl, 0.1 M tetra-sodium EDTA, 10 mM Tris-base, 1% (w/v) N-lauryl sarcosine, 10% (v/v) DMSO, and 1% (v/v) Triton X-100, pH 10.0]. After being kept on ice for 30 min, the gels were gently rinsed with distilled water and immersed in a second lysis buffer (2.5 M NaCl, 0.1 M tetrasodium EDTA, 10 mM Tris-base) containing 1 mg/ml proteinase K for 60 min at 37° C. Thereafter, the gels were rinsed with distilled water, incubated in alkaline electrophoresis buffer for 30 min at 37° C., and electrophoresed at 300 mA for 60 min. […] Comets were visualized at 330× magnification and DNA damage was quantitated using the Tail Moment parameter (i.e., the distance between the barycenter of the head and the tail of the comet multiplied by the percentage of DNA within the tail of the comet). A minimum of 50 cell comets were analyzed for each sample, using ALKOMET version 3.1 image analysis software, and values are averages of tail moments for the entire cell population per sample.

Sequence of EGFR (P00533 25-1210): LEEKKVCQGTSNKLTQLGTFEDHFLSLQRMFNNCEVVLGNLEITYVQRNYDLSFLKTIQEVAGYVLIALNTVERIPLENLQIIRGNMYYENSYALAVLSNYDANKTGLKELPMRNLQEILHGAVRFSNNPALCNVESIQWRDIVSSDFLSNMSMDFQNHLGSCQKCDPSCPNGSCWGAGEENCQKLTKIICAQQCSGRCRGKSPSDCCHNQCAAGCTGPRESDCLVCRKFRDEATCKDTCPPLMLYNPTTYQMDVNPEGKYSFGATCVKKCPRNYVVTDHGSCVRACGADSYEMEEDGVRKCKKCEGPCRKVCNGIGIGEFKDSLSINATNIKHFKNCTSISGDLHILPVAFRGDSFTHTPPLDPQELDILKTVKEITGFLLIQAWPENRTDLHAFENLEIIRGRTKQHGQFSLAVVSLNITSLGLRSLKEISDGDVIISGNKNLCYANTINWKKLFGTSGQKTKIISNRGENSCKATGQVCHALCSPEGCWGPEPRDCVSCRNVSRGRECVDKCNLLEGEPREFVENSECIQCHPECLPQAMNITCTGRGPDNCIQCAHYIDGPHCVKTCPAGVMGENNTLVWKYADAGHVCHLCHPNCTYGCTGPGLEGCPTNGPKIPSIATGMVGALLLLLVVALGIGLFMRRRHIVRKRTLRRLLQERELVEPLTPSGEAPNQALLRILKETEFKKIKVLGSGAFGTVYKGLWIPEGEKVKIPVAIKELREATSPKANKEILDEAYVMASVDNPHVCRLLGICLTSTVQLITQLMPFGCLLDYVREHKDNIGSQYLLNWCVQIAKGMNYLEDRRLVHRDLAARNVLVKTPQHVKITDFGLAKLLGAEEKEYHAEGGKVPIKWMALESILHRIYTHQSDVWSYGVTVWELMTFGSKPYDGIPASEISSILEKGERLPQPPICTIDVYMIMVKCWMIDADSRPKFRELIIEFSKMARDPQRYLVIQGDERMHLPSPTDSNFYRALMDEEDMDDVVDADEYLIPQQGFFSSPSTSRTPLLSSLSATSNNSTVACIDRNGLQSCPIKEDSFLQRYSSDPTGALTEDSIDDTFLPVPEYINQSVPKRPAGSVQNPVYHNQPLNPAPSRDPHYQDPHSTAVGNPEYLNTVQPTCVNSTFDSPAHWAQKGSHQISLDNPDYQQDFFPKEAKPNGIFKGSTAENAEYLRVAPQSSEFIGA

In the case of `CNN=Nc1ccc2ncnc(Nc3cccc(Cl)c3)c2c1` [BJ2000], the “EGF-dependent EGFR autophosphorylation immediately after drug exposure” value ([1]; 90 min) was “completely suppressed”, the “EGFR autophosphorylation activity restored” value ([1]; 8 h post-treatment in drug-free medium after repeated washouts) was 40% and the “concentration giving 100% growth inhibition” value ([2]; EGF or TGFα-induced proliferation, NIH3T3HER14, 72 h) was 1 µM. For the same compound, the “concentration giving 100% inhibition” value ([2]; PDGF-stimulated growth, NIH3T3HER14, 72 h) was “approximately 30 μM”, the “fold less effective in inhibiting PDGF-stimulated growth” value ([2]; versus EGF or TGFα-induced proliferation, NIH3T3HER14) was “approximately 30 fold” and the “fold higher levels of DNA damage in the EGFR transfectant” value [3] was “more than 2 fold”.
